Experimental data as given in US11344533B2, “Autotaxin inhibitor compounds” (Sabre Therapeutics LLC, priority 2013, dated 2022).

These compounds were tested against human autotaxin (Homo sapiens (Human), UniProt Q13822) (assay: Human Autotaxin Assay (choline release from LPC, Hep3B conditioned media)). Conditions: ATX activity in concentrated conditioned media from Hep3B cells, substrate LPC.
Assay type: biochemical

IC50 [nM]	Compound
< 500	CCCn1cc(-n2c(Cl)c(Sc3cccc(C(=O)O)c3)c3ccc(Cl)cc32)cn1 [Compound 1-1, 3-((2,6-dichloro-1-(1-propyl-1H-pyrazol-4-yl)-1H-indol-3-yl)thio)benzoic acid]
< 500	CCCn1cc(-n2c(C#N)c(Sc3cccc(C(=O)O)c3)c3ccc(Cl)cc32)cn1 [Compound 1-3, 3-((6-chloro-2-cyano-1-(1-propyl-1H-pyrazol-4-yl)-1H-indol-3-yl)thio)benzoic acid]
< 500	CCCn1cc(-n2c(C3CC3)c(Sc3cccc(C(=O)O)c3)c3ccc(Cl)cc32)cn1 [Compound 1-4, 3-((6-chloro-2-cyclopropyl-1-(1-propyl-1H-pyrazol-4-yl)-1H-indol-3-yl)thio)benzoic acid]
< 500	CCCn1cc(-n2c(Cl)c(Sc3cccc(C(=O)O)c3)c3ccc(Cl)c(F)c32)cn1 [Compound 1-7, 3-((2,6-dichloro-7-fluoro-1-(1-propyl-1H-pyrazol-4-yl)-1H-indol-3-yl)thio)benzoic acid]
< 500	CCCn1cc(-n2c(C3CC3)c(Sc3cccc(C(=O)O)c3)c3ccc(Cl)c(F)c32)cn1 [Compound 1-10, 3-((6-chloro-2-cyclopropyl-7-fluoro-1-(1-propyl-1H-pyrazol-4-yl)-1H-indol-3-yl)thio)benzoic acid]
< 500	CCCn1cc(-n2c(C3CC3)c(Sc3cccc(C(=O)O)c3F)c3ccc(Cl)c(F)c32)cn1 [Compound 1-16, 3-((6-chloro-2-cyclopropyl-7-fluoro-1-(1-propyl-1H-pyrazol-4-yl)-1H-indol-3-yl)thio)-2-fluorobenzoic acid]
< 500	CCn1cc(-n2c(Cl)c(Sc3cccc(C(=O)O)c3F)c3ccc(Cl)c(F)c32)cn1 [Compound 1-31, 3-((2,6-dichloro-1-(1-ethyl-1H-pyrazol-4-yl)-7-fluoro-1H-indol-3-yl)thio)-2-fluorobenzoic acid]
< 500	Cn1cc(-n2c(Cl)c(Sc3cccc(C(=O)O)c3F)c3ccc(Cl)c(F)c32)cn1 [Compound 1-49, 3-((2,6-dichloro-7-fluoro-1-(1-methyl-1H-pyrazol-4-yl)-1H-indol-3-yl)thio)-2-fluorobenzoic acid]
< 500	CCn1cc(-n2c(C3CC3)c(Sc3cccc(C(=O)O)n3)c3ccc(Cl)c(F)c32)cn1 [Compound 1-92, 6((6-chloro-2-cyclopropyl-1-(1-ethyl-1H-pyrazol-4-yl)-7-fluoro-1H-indol-3-yl)thio)picolinic acid]
< 500	O=C(O)c1cccc(Sc2c(C3CC3)n(-c3cn[nH]c3)c3c(F)c(Cl)ccc23)c1F [Compound 1-119, 3-((6-chloro-2-cyclopropyl-7-fluoro-1-(1H-pyrazol-4-yl)-1H-indol-3-yl)thio)-2-fluorobenzoic acid]
< 500	O=C(O)c1cccc(Sc2c(C3CC3)n(-c3cnn(CCO)c3)c3c(F)c(Cl)ccc23)c1F [Compound 1-120, 3-((6-chloro-2-cyclopropyl-7-fluoro-1-(1-(2-hydroxyethyl)-1H-pyrazol-4-yl)-1H-indol-3-yl)thio)-2-fluorobenzoic acid]
< 500	NC(=O)OCCn1cc(-n2c(C3CC3)c(Sc3cccc(C(=O)O)c3F)c3ccc(Cl)c(F)c32)cn1 [Compound 1-121, 3-(1-(1-(2-(carbamoyloxy)ethyl)-1H-pyrazol-4-yl)-(6-chloro-2-cyclopropyl-7-fluoro-1H-indol-3-yl)thio)-2-fluorobenzoic acid]
< 500	NCCn1cc(-n2c(C3CC3)c(Sc3cccc(C(=O)O)c3F)c3ccc(Cl)c(F)c32)cn1 [Compound 1-122, 3-(1-(1-(2-aminoethyl)-1H-pyrazol-4-yl)-(6-chloro-2-cyclopropyl-7-fluoro-1H-indol-3-yl)thio)-2-fluorobenzoic acid]
< 500	NC(=O)NCCn1cc(-n2c(C3CC3)c(Sc3cccc(C(=O)O)c3F)c3ccc(Cl)c(F)c32)cn1 [Compound 1-123, 3-((6-chloro-2-cyclopropyl-7-fluoro-1-(1-(2-ureidoethyl)-1H-pyrazol-4-yl)-1H-indol-3-yl)thio)-2-fluorobenzoic acid]
< 500	O=C(O)CCCn1cc(-n2c(C3CC3)c(Sc3cccc(C(=O)O)c3F)c3ccc(Cl)c(F)c32)cn1 [Compound 1-124, 3-(1-(1-(3-carboxypropyl)-1H-pyrazol-4-yl)-(6-chloro-2-cyclopropyl-7-fluoro-1H-indol-3-yl)thio)-2-fluorobenzoic acid]
< 500	NC(=O)CCCn1cc(-n2c(C3CC3)c(Sc3cccc(C(=O)O)c3F)c3ccc(Cl)c(F)c32)cn1 [Compound 1-125, 3-(1-(1-(4-amino-4-oxobutyl)-1H-pyrazol-4-yl)-(6-chloro-2-cyclopropyl-7-fluoro-1H-indol-3-yl)thio)-2-fluorobenzoic acid]
< 500	O=C(O)c1cccc(Sc2c(C3CC3)n(-c3cnn(CC(F)(F)F)c3)c3c(F)c(Cl)ccc23)c1F [Compound 1-126, 3-((6-chloro-2-cyclopropyl-7-fluoro-1-(1-(2,2,2-trifluoroethyl)-1H-pyrazol-4-yl)-1H-indol-3-yl)thio)-2-fluorobenzoic acid]
< 500	NCCCCCCn1cc(-n2c(C3CC3)c(Sc3cccc(C(=O)O)c3F)c3ccc(Cl)c(F)c32)cn1 [Compound 1-128, 3-(1-(1-(6-aminohexyl)-1H-pyrazol-4-yl)-(6-chloro-2-cyclopropyl-7-fluoro-1H-indol-3-yl)thio)-2-fluorobenzoic acid]
< 500	O=C(O)c1cccc(Sc2c(Cl)n(-c3cccnc3)c3c(F)c(Cl)ccc23)c1F [Compound 2-1, 3-((2,6-dichloro-7-fluoro-1-(pyridin-3-yl)-1H-indol-3-yl)thio)-2-fluorobenzoic acid]
< 500	O=C(O)c1cccc(Sc2c(Br)n(-c3cccnc3)c3c(F)c(Cl)ccc23)c1F [Compound 2-2, 3-((2-bromo-6-chloro-7-fluoro-1-(pyridin-3-yl)-1H-indol-3-yl)thio)-2-fluorobenzoic acid]
< 500	O=C(O)c1cccc(Sc2c(C3CC3)n(-c3cccnc3)c3c(F)c(Cl)ccc23)c1F [Compound 2-3, 3-((6-chloro-2-cyclopropyl-7-fluoro-1-(pyridin-3-yl)-1H-indol-3-yl)thio)-2-fluorobenzoic acid]
< 500	CCn1cc(-n2c(C3CC3)c(Sc3cccc(CC(=O)O)c3F)c3ccc(Cl)c(F)c32)cn1 [Compound 2-7, 2-(3-((6-chloro-2-cyclopropyl-1-(1-ethyl-1H-pyrazol-4-yl)-7-fluoro-1H-indol-3-yl)thio)-2-fluorophenyl)acetic acid]

Compound	IC50 [nM]
3-((6-chloro-2-cyclopropyl-1-(1-(6-(3-(3′,6′-dihydroxy-3-oxo-3H-spiro[isobenzofuran-1,9′-xanthen]-5-yl)ureido)hexyl)-1H-pyrazol-4-yl)-7-fluoro-1H-indol-3-yl)thio)-2-fluorobenzoic acid [Compound 1-131]	< 500

These compounds were tested on dog (assay: dog liver toxicity study). Conditions: dog liver toxicity study; liver markers ALT, AST, AlkP and bilirubin.
Method: In some embodiments, liver toxicity can be assessed in suitable in vivo assays. In some embodiments, liver toxicity is assessed by monitoring any increases in the levels of liver markers ALT, AST, AlkP and bilirubin.

Compound	liver markers
CCCn1cc(-n2c(Cl)c(Sc3cccc(C(=O)O)c3F)c3ccc(Cl)c(F)c32)cn1 [Compound 1-13, 3-((2,6-dichloro-7-fluoro-1-(1-propyl-1H-pyrazol-4-yl)-1H-indol-3-yl)thio)-2-fluorobenzoic acid]	did not exhibit the same effects

Same assay, conditions: dosed at 100 mpk for 5 days

Compound	increases in liver markers ALT, AST, AlkP and bilirubin
CCCn1cc(-n2c(Cl)c(Sc3cccc(C(=O)O)c3F)c3ccc(Cl)c(F)c32)cn1 [Compound 1-13, 3-((2,6-dichloro-7-fluoro-1-(1-propyl-1H-pyrazol-4-yl)-1H-indol-3-yl)thio)-2-fluorobenzoic acid]	no increases in liver markers ALT, AST, AlkP and bilirubin were observed
